Like-named read-outs stand apart in the source and are kept apart here.
Key:
[1] = test system: 3D7 strain of Plasmodium falciparum; test: In vitro antimalarial activity, 48-h [3H]-hypoxanthine incorporation assay; assay type: cell-based
Experimental: The 3D7 strain of Plasmodium falciparum was used in this study. This strain is known to be […] Parasites were maintained in continuous culture using the method of Jensen and Trager^4. […] Stock drug solutions were prepared in 100% dimethylsulphoxide (DMSO) and diluted to the appropriate concentration using complete medium. Assays were performed in sterile 96-well microlitre plates, each plate contained 200 μl of parasite culture (2% parasitemia, 0.5% haematocrit) with or without 10 μl drug dilutions. Each drug was tested in triplicate and parasite growth compared to control wells (which constituted 100% parasite growth). […] IC50 values were calculated by interpolation of the probit transformation of the log dose-response curve.

[2] = 3D7, sulfonamide dispiro 1,2,4,5-tetraoxanes, Table 8, read-out: Mean IC50
[3] = 3D7, 3D7 strain, mean of triplicate results, Table 5, read-out: Mean IC50

SMILES	melting point	IC50 [1, 2]	IC50 [1, 3]	also measured
O=C1CCC2(CC1)OOC1(CCCCCCCCCCC1)OO2 [Tetraoxane 11, 7,8,21,22-Tetraoxa-dispiro[5.2.11.2]docosan-3-one]	108 to 110 °C	–	–	–
COC(=O)[C@@H](NC(=O)CC1CCC2(CC1)OOC1(OO2)C2CC3CC(C2)CC1C3)C(C)C (stereo in doubt) [Tetraoxane 29j, Adamantyl acetamide]	108 to 110 °C	–	–	–
O=S(=O)(c1ccccc1)N1CCC2(CC1)OOC1(CCCCCCCCCCC1)OO2 [Tetraoxane 40d]	–	131 nM	–	–
CCS(=O)(=O)N1CCC2(CC1)OOC1(CCCCCCCCCCC1)OO2 [Tetraoxane 40b]	–	29.1 nM	–	–
CS(=O)(=O)N1CCC2(CC1)OOC1(CCCCCCCCCCC1)OO2 [Tetraoxane 40a]	–	27.8 nM	–	–
O=C(CC1CCC2(CC1)OOC1(CCCCCCCCCCC1)OO2)NCCN1CCCC1 [Tetraoxane 28d, N-(2-Pyrrolidin-1-yl-ethyl)-2-(7,8,21,22-tetraoxa-dispiro[5.2.11.2]do-cos-3-yl)-acetamide]	108 to 110 °C	–	–	–
CS(=O)(=O)N1CCC2(CC1)OOC1(OO2)C2CC3CC(C2)CC1C3 [Tetraoxane 39a]	–	10.2 nM	–	–
O=C(CC1CCC2(CC1)OOC1(OO2)C2CC3CC(C2)CC1C3)N1CCSCC1 (stereo not shown) [Tetraoxane 29i, Tetraoxa-dispiro-(adamantly)-thiomorpholin-4-yl-ethanone]	150 to 152 °C	–	5.9 nM	–
O=C(CC1CCC2(CC1)OOC1(CCCCC1)OO2)NCCN1CCCCC1 [Tetraoxane 27e, N-(2-Piperidin-1-yl-ethyl)-2-(7,8,15,16-tetraoxa-dispiro[5.2.5.2]-hexadec-3-yl)-acetamide]	68 to 78 °C	–	19.2 nM	–
O=C(CC1CCC2(CC1)OOC1(CCCCCCCCCCC1)OO2)NCCN1CCOCC1 [Tetraoxane 28f, N-(2-Morpholin-4-yl-ethyl)-2-(7,8,21,22-tetraoxa-dispiro[5.2.11.2]do-cos-3-yl)-acetamide]	78 to 80 °C	–	–	–
C[C@@H]1CC[C@H]2[C@@H](C)C(=O)O[C@@H]3O[C@@]4(C)CC[C@@H]1[C@]32OO4 [Artemisinin, reference compound]	–	9.2 nM	9.5 nM	–
CCN(CC)CCNC(=O)CC1CCC2(CC1)OOC1(CCCCCCCCCCC1)OO2 [Tetraoxane 28g, N-(2-Diethylamino-ethyl)-2-(7,8,21,22-tetraoxa-dispiro[5.2.11.2]-docos-3-yl)-acetamide]	64 to 66 °C	–	–	–
O=S(=O)(c1ccc(Cl)cc1)N1CCC2(CC1)OOC1(OO2)C2CC3CC(C2)CC1C3 [Tetraoxane 39h]	–	22.7 nM	–	–
CCOC(=O)CC1CCC2(CC1)OOC1(CCCCC1)OO2 [Tetraoxane 27a, (7,8,15,16-Tetraoxa-dispiro[5.2.5.2]hexadec-3-yl)acetic acid ethyl ester]	–	–	24.2 nM	–
O=C(CC1CCC2(CC1)OOC1(CCCCC1)OO2)NCCN1CCCC1 [Tetraoxane 27d, N-(2-Pyrrolidin-1-yl-ethyl)-2-(7,8,15,16-tetraoxa-dispiro[5.2.5.2]-hexadec-3-yl)-acetamide]	110 to 112 °C	–	19.1 nM	–
O=C1CCC2(CC1)OOC1(OO2)C2CC3CC(C2)CC1C3 [Tetraoxane 12, adamantane tetraoxane ketone]	156 to 158 °C	–	–	–
O=C(CC1CCC2(CC1)OOC1(CCCCCCCCCCC1)OO2)NC1CC1 [Tetraoxane 28c, N-Cyclopropyl-2-(7,8,21,22-tetraoxa-dispiro[5.2.11.2]docos-3-yl)-acet-amide]	136 to 138 °C	–	18.7 nM	–
O=C(CC1CCC2(CC1)OOC1(CCCCCCCCCCC1)OO2)NCCN1CCCCC1 [Tetraoxane 28e, N-(2-Piperidin-1-yl-ethyl)-2-(7,8,21,22-tetraoxadispiro[5.2.11.2]-docos-3-yl)-acetamide]	96 to 98 °C	–	–	–
O=S(=O)(c1ccc(F)cc1)N1CCC2(CC1)OOC1(OO2)C2CC3CC(C2)CC1C3 [Tetraoxane 39g]	–	16.7 nM	–	–

SMILES	melting point	IC50 [1, 2]	IC50 [1, 3]	also measured
O=C(CC1CCC2(CC1)OOC1(CCCCCCCCCCC1)OO2)N1CCSCC1 [Tetraoxane 28i, 2-(7,8,21,22-Tetraoxa-dispiro[5.2.11.2]docos-3-yl)-1-thiomorpholin-4-yl-ethanone]	108 to 110 °C	–	26.9 nM	–
O=C(CC1CCC2(CC1)OOC1(OO2)C2CC3CC(C2)CC1C3)NCCN1CCCCC1 (stereo not shown) [Tetraoxane 29e, N-(2-Piperidin-1-yl-ethyl)-[adamantyl]acetamide]	119 to 121 °C	–	–	–
CCN(CC)CCNC(=O)CC1CCC2(CC1)OOC1(CCCCC1)OO2 [Tetraoxane 27g, N-(2-Diethylamino-ethyl)-2-(7,8,15,16-tetraoxa-dispiro[5.2.5.2]-hexadec-3-yl)-acetamide]	–	–	5.15 nM	–
C1CCC2(CC1)OOC1(CCC(N3CCOCC3)CC1)OO2 [Tetraoxane 19, 4-(7,8,15,16-Tetraoxa-dispiro[5.2.5.2]hexadec-3-yl)-morpholine]	–	–	29.4 nM	–
O=C(CC1CCC2(CC1)OOC1(OO2)C2CC3CC(C2)CC1C3)N1CCCCC1 (stereo not shown) [Tetraoxane 29m]	–	–	0.5 nM	–
O=C(CC1CCC2(CC1)OOC1(CCCCCCCCCCC1)OO2)N1CCS(=O)(=O)CC1 [Tetraoxane 31, 1-(1,1-Dioxo-1λ^6-thiomorpholin-4-yl)-2-(7,8,21,22-tetraoxa-dispiro[5.2.11.2]docos-3-yl)-ethanone]	170 to 172 °C	–	92.6 nM	–
CC(C)S(=O)(=O)N1CCC2(CC1)OOC1(OO2)C2CC3CC(C2)CC1C3 [Tetraoxane 39c]	–	5.87 nM	–	–
O=C(N1CCCCC1)N1CCC2(CC1)OOC1(CCCCC1)OO2 [Tetraoxane 34k]	–	–	–	IC50 ([1]; 3D7, read-out: Mean IC50): 7 nM
O=C(CC1CCC2(CC1)OOC1(CCCCC1)OO2)NCCN1CCOCC1 [Tetraoxane 27f, N-(2-Morpholin-4-yl-ethyl)-2-(7,8,15,16-tetraoxa-dispiro[5.2.5.2]-hexadec-3-yl)-acetamide]	–	–	19.1 nM	–
O=S(=O)(c1ccc(C(F)(F)F)cc1)N1CCC2(CC1)OOC1(OO2)C2CC3CC(C2)CC1C3 [Tetraoxane 39i]	–	20.7 nM	–	–
O=C1CCC2(CC1)OOC1(CCCCC1)OO2 [Tetraoxane 10, 7,8,15,16-Tetraoxa-dispiro[5.2.5.2]hexadecan-3-one]	78 to 80 °C	–	6 nM	–
O=C1CCN(C(=O)N2CCOCC2)CC1 [Tetraoxane 34f, 1-(Morpholine-4-carbonyl)-piperidin-4-one]	–	–	–	IC50 ([1]; 3D7, read-out: Mean IC50): 4.7 nM
O=S(=O)(CC(F)(F)F)N1CCC2(CC1)OOC1(OO2)C2CC3CC(C2)CC1C3 [Tetraoxane 39e]	–	14.3 nM	–	–
O=C(CC1CCC2(CC1)OOC1(OO2)C2CC3CC(C2)CC1C3)NCCN1CCCC1 (stereo not shown) [Tetraoxane 29d]	142 to 144 °C	–	–	–
CC(C)S(=O)(=O)N1CCC2(CC1)OOC1(CCCCCCCCCCC1)OO2 [Tetraoxane 40c]	–	86.4 nM	–	–
O=C(N1CCCCC1)N1CCC(OO)(OO)CC1 [Tetraoxane 34i, (4,4-dihydroperoxypiperidin-1-yl)(piperidin-1-yl)methanone]	–	–	–	IC50 ([1]; 3D7, read-out: Mean IC50): 7.2 nM
C1CCC2(CC1)OOC1(CCC(NC3CC3)CC1)OO2 [Tetraoxane 14, Cyclopropyl-(7,8,15,16-tetraoxa-dispiro[5.2.5.2]hexadec-3-yl)-amine]	–	–	20 nM	–
CCS(=O)(=O)N1C2CCC1CC1(C2)OOC2(OO1)C1CC3CC(C1)CC2C3 (stereo not shown) [Tetraoxane 41d, Tropinone derived 1,2,4,5-tetraoxane]	–	60.6 nM	–	–
CC(C)CN1CCN(C(=O)CC2CCC3(CC2)OOC2(OO3)C3CC4CC(C3)CC2C4)CC1 (stereo not shown) [Tetraoxane 29s]	–	–	2.7 nM	–

Source: patent US20100113436A1, “DISPIRO TETRAOXANE COMPOUNDS AND THEIR USE IN THE TREATMENT OF MALARIA AND/OR CANCER” (priority 2006, published 2010)
